Paper PMC7481290, “Halogenation as a tool to tune antimicrobial activity of peptoids” (Scientific Reports, 2020)
In brackets after ≈: the same amount, converted by molar mass. Non-standard residues stand in square brackets, D forms with d. Residues, ends and D or L forms follow the SMILES beside them. Gly(Nα-4-Cl-benzyl) = O=C(O)CNCc1ccc(Cl)cc1; N(4-Br-benzyl)Gly = O=C(O)CNCc1ccc(Br)cc1; N(4-F-Bzl)Gly = O=C(O)CNCc1ccc(F)cc1; NBzl(4-I)Gly = O=C(O)CNCc1ccc(I)cc1; Nphe = O=C(O)CNCc1ccccc1; Nlys = NCCCCNCC(=O)O

Experiments:
S. aureus ATCC 25923 = assay type: cell-based, Staphylococcus aureus; conditions: ATCC 25923, 18 h
Method: (§1) Bacterial growth inhibition was determined by using broth microdilution according to the Clinical Laboratory Standards Institute[43]. The antibacterial activity of peptoids was tested against S. aureus ATCC 25923, ATCC29213, and methicillin resistant S. aureus USA 300, methicillin resistant S. epidermidis ATCC 51625, a biofilm producing methicillin resistant S. epidermidis ET-024[44], P. aeruginosa Pa01 (H103), and E. coli ATCC 25922. Bacteria, grown on agar plates for 18 h at 37 °C, were diluted to ∼1 × 10^8 CFU/mL in Mueller‐Hinton Broth II (MHB II). Twofold serial dilutions of peptoids in MHB II were inoculated with bacteria to achieve a final concentration of 5 × 10^5 CFU/mL in polypropylene 96 U‐well microtiter plates (Corning 3,897; ThermoFisher Scientific, Roskilde), followed by incubation at 37 °C in ambient air for 18 h. The MIC values were determined as the lowest concentration showing no visible bacterial growth. Experiments were performed twice (in technical triplicates) on 2 different days.

S. aureus ATCC 29213 = assay type: cell-based, Staphylococcus aureus; conditions: ATCC 29213, 18 h
Method: as §1

[1] = tested on: Methicillin-resistant S. aureus USA 300; assay type: cell-based, Staphylococcus aureus; conditions: USA 300, 18 h
Method: as §1

[2] = tested on: Methicillin-resistant S. epidermidis ET-024; assay type: cell-based, Staphylococcus epidermidis; conditions: Methicillin-resistant ET-024, 18 h
Method: as §1

[3] = tested on: Methicillin-resistant S. epidermidis ATCC 51625; assay type: cell-based, Staphylococcus epidermidis; conditions: ATCC 51625, 18 h
Method: as §1

E. coli ATCC 25922 = assay type: cell-based, Escherichia coli; conditions: ATCC 25922, 18 h
Method: as §1

[4] = tested on: P. aeruginosa PA01 (H103); assay type: cell-based, Pseudomonas aeruginosa; conditions: H103, 18 h
Method: as §1

Compound	Minimal inhibitory concentration SA^a (S. aureus ATCC 25923) [µg/mL]	Minimal inhibitory concentration SA^b (S. aureus ATCC 29213) [µg/mL]	Minimal inhibitory concentration MRSA^c [1] [µg/mL]	Minimal inhibitory concentration MRSE^d [2] [µg/mL]	Minimal inhibitory concentration MRSE^e [3] [µg/mL]	Minimal inhibitory concentration EC^f (E. coli ATCC 25922) [µg/mL]	Minimal inhibitory concentration PA^g [4] [µg/mL]
NCCCCNCC(=O)N(CC(=O)N(CCCCN)CC(=O)N(CC(=O)N(CCCCN)CC(=O)N(CC(=O)N(CCCCN)CC(=O)N(CC(N)=O)Cc1ccc(Br)cc1)Cc1ccc(Br)cc1)Cc1ccc(Br)cc1)Cc1ccc(Br)cc1 [Compound 13] (H-[Nlys][N(4-Br-benzyl)Gly][Nlys][N(4-Br-benzyl)Gly][Nlys][N(4-Br-benzyl)Gly][Nlys][N(4-Br-benzyl)Gly]-NH2)	4 (≈ 2.79 µM)	8 (≈ 5.58 µM)	2 (≈ 1.39 µM)	2 (≈ 1.39 µM)	4 (≈ 2.79 µM)	64 (≈ 44.6 µM)	> 512
NCCCCNCC(=O)N(CC(=O)N(CCCCN)CC(=O)N(CC(=O)N(CCCCN)CC(=O)N(CC(N)=O)Cc1ccc(F)cc1)Cc1ccccc1)Cc1ccc(F)cc1 [Compound 6] (H-[Nlys][N(4-F-Bzl)Gly][Nlys][Nphe][Nlys][N(4-F-Bzl)Gly]-NH2)	> 512	> 512	> 512	256 (≈ 291 µM)	512 (≈ 582 µM)	> 512	> 512
NCCCCNCC(=O)N(CC(=O)N(CCCCN)CC(=O)N(CC(=O)N(CCCCN)CC(=O)N(CC(=O)N(CCCCN)CC(=O)N(CC(N)=O)Cc1ccc(F)cc1)Cc1ccc(F)cc1)Cc1ccc(F)cc1)Cc1ccc(F)cc1 [Compound 11] (H-[Nlys][N(4-F-Bzl)Gly][Nlys][N(4-F-Bzl)Gly][Nlys][N(4-F-Bzl)Gly][Nlys][N(4-F-Bzl)Gly]-NH2)	256 (≈ 215 µM)	256 (≈ 215 µM)	256 (≈ 215 µM)	64 (≈ 53.8 µM)	32 (≈ 26.9 µM)	128 (≈ 108 µM)	> 512
NCCCCNCC(=O)N(CC(=O)N(CCCCN)CC(=O)N(CC(=O)N(CCCCN)CC(=O)N(CC(=O)N(CCCCN)CC(=O)N(CC(N)=O)Cc1ccc(I)cc1)Cc1ccccc1)Cc1ccc(I)cc1)Cc1ccccc1 [Compound 18] (H-[Nlys][Nphe][Nlys][NBzl(4-I)Gly][Nlys][Nphe][Nlys][NBzl(4-I)Gly]-NH2)	32 (≈ 23.4 µM)	32 (≈ 23.4 µM)	16 (≈ 11.7 µM)	8 (≈ 5.84 µM)	4 (≈ 2.92 µM)	256 (≈ 187 µM)	> 512
NCCCCNCC(=O)N(CC(=O)N(CCCCN)CC(=O)N(CC(=O)N(CCCCN)CC(=O)N(CC(=O)N(CCCCN)CC(=O)N(CC(=O)N(CCCCN)CC(=O)N(CC(=O)N(CCCCN)CC(=O)N(CC(N)=O)Cc1ccc(Cl)cc1)Cc1ccccc1)Cc1ccc(Cl)cc1)Cc1ccccc1)Cc1ccc(Cl)cc1)Cc1ccccc1 [Compound 34] (H-[Nlys][Nphe][Nlys][Gly(Nα-4-Cl-benzyl)][Nlys][Nphe][Nlys][Gly(Nα-4-Cl-benzyl)][Nlys][Nphe][Nlys][Gly(Nα-4-Cl-benzyl)]-NH2)	16 (≈ 9.03 µM)	8 (≈ 4.51 µM)	8 (≈ 4.51 µM)	4 (≈ 2.26 µM)	1 (≈ 0.564 µM)	256 (≈ 144 µM)	> 512
NCCCCNCC(=O)N(CC(=O)N(CCCCN)CC(=O)N(CC(=O)N(CCCCN)CC(=O)N(CC(=O)N(CCCCN)CC(=O)N(CC(N)=O)Cc1ccc(F)cc1)Cc1ccccc1)Cc1ccc(F)cc1)Cc1ccccc1 [Compound 15] (H-[Nlys][Nphe][Nlys][N(4-F-Bzl)Gly][Nlys][Nphe][Nlys][N(4-F-Bzl)Gly]-NH2)	> 512	> 512	> 512	128 (≈ 111 µM)	128 (≈ 111 µM)	512 (≈ 444 µM)	512 (≈ 444 µM)
